Where a name gives a salt, the structure may show the parent alone.

System in the first series: not given
Assay: not given
Details: not given
For `CCNC(=O)c1ccc(C(=C2CC3CCC(C2)N3CCc2ccccc2)c2ccccc2)cc1` (as salt: HCl) [Example 26, N-Ethyl-4-[(8-phenethyl-8-azabicyclo[3.2.1]oct-3-ylidene)phenylmethyl]benzamide], the melting point was 296 to 298 °C (dec.). Still for that read-out and setting: the result for `NC(=O)c1ccc(C(=C2CC3CCC(C2)N3CCc2ccccc2)c2ccccc2)cc1` (as salt: hydrochloride) [Example 29, 4-[(8-Phenethyl-8-azabicyclo[3.2.1]oct-3-ylidene)phenylmethyl]benzamide Hydrochloride [1:1].] reads 210 to 212 °C; that for `CCN(CC)C(=O)c1ccc(C(=C2CC3CCC(C2)N3CCc2ccccc2)c2ccccc2)cc1` (single isomer, unassigned; (+)) (as salt: hydrochloride) [Example 24], 211 to 212 °C; that for `CCN(CC)C(=O)c1ccc(C(=C2CC3CCC(C2)N3CCc2ccccc2)c2ccccc2)cc1` (single isomer, unassigned; (-)) (as salt: hydrochloride) [Example 23], 210 to 211 °C.

For `CCN(CC)C(=O)c1ccc(C(=C2CC3CCC(C2)N3C)c2ccccc2)cc1.Cl` [Example 1, N,N-Diethyl-4-[(8-methyl-8-azabicyclo[3.2.1]oct-3-ylidene)phenylmethyl]benzamide Hydrochloride [1:1]], the melting point fell in the range of 145 to 147 °C.

In turn, `CCN(CC)C(=O)c1ccc(C(=C2CC3CCC(C2)N3)c2ccccc2)cc1.Cl` [Example 2, N,N-Diethyl-4-[(8-azabicyclo[3.2.1]oct-3-ylidene)phenylmethyl]benzamide Hydrochloride [1:1]] displayed a melting point of 128 to 132 °C. Still for that read-out and setting: the result for `CCCN1C2CCC1CC(=C(c1ccccc1)c1ccc(C(=O)N(CC)CC)cc1)C2.Cl` [Example 18, N,N-Diethyl-4-[(8-propyl-8-azabicyclo[3.2.1]oct-3-ylidene)phenylmethyl]benzamide Hydrochloride [1:1]] reads 184 °C; that for `CN(C(=O)c1cccc(C(=C2CC3CCC(C2)N3C)c2ccccc2)c1)c1cccc(F)c1.O=C(O)/C=C/C(=O)O` [Example 22, N-(3-Fluorophenyl)-N-methyl-3-[(8-methyl-8-azabicyclo[3.2.1]oct-3-ylidene)phenylmethyl]benzamide Fumarate [1:1]], 122 to 125 °C.

A further series deals with mouse acetylcholine bromide-induced abdominal constriction. As to the kind of experiment: Mouse acetylcholine bromide-induced abdominal constriction assay. In kind it is in vivo. As to conditions: 150 μmole/Kg p.o., 30 min before 5.5 mg/kg acetylcholine bromide i.p. As to the method:
Mouse Acetylcholine Bromide-Induced Abdominal Constriction Assay
The mouse acetylcholine-induced abdominal constriction assay (as described by Collier et al. in Brit. J. Pharmacol. Chem. Ther., 1968, 32: 295-310 with minor modifications) was used to assess analgesic potency of the compounds of formula (I). The test drugs or appropriate vehicles were administered orally (p.o.) and 30 min later the animal received an intraperitoneal (i.p.) injection of 5.5 mg/kg acetylcholine bromide (Matheson, Coleman and Bell, East Rutherford, N.J.). The mice were then placed in groups of three into glass bell jars and observed for a ten min observation period for the occurrence of an abdominal constriction response (defined as a wave of constriction and elongation passing caudally along the abdominal wall, accompanied by a twisting of the trunk and followed by extension of the hind limbs). For compounds of the present invention, the percent inhibition of this response to a nociceptive stimulus (equated to % analgesia) was calculated as follows: [formula]
In the case of `CCN(CC)C(=O)c1ccc(C(=C2CC3CCC(C2)N3C)c2ccccc2)cc1.Cl` [Example 1, N,N-Diethyl-4-[(8-methyl-8-azabicyclo[3.2.1]oct-3-ylidene)phenylmethyl]benzamide Hydrochloride [1:1]], the “percent inhibition of abdominal constriction response (% analgesia)” value is given as 87%.

Values taken from US20030181447A1, “3-(Diarylmethylene)-8-azabicyclo[3.2.1]octane derivatives” (priority 2001, published 2003).
